Patent publication US20070156042A1, “Medical device system and method for tracking and visualizing a medical device system under MR guidance” (priority 2005, published 2007)

Assay: Diffusion of a fluorescent probe in swollen gelatin gel by FRAP
Type: physicochemical
Settings: coating thickness 60 μm, diffusion coefficient 9×10−12 m2s−1
Source text: To assess the stability of DTPA[Gd(III)] in the gelatin coating, the diffusion of a fluorescence probe in gelatin was studied by the technique of fluorescence recovery after photobleaching (FRAP). The instrument and data analysis scheme are described in Kim, S. H. and Yu, H., J. Phys. Chem. 1992, 96, 4034, which is hereby fully incorporated by reference. Fluorescein was used as the fluorescence probe due, in part, to its molecular size being roughly the same as that of DTPA[Gd(III)]. The focus of the study was to examine the possible retardation effects of gelatin concentration and cross-link density on the diffusion, which was determined at room temperature, i.e., below the gel point of gelatin. The diffusion of fluorescein probe slows down with the increase of gelatin concentration. The diffusion coefficient decreases from 1.5×10−10 to 9×10−12 m2s−1 when the concentration of gelatin increases from 9% to 40%. […] Accordingly, the probe diffusion is more likely controlled by the concentration of gelatin rather than the cross-link density. On the other hand, the cross-link density may determine the swelling ratio of gelatin, i.e., the concentration of gelatin in aqueous solution. […]

With `O=C(O)CN(CCN(CC(=O)O)CC(=O)O)CCN(CC(=O)O)CC(=O)O` [DTPA, diethylenetriaminepentaacetic acid] the “time to diffuse out of the gelatin coating” value was “about 67 seconds”.
